Experimental data from patent US20250129027A1 (APOGEE PHARMACEUTICALS, INC., priority 2023, published 2025).
Values after ≈ are worked out from the molar mass of the structure shown. Like-named read-outs stand apart in the source and are kept apart here.

How the values were obtained:
[1] = Aqueous solubility in PBS buffer pH 7.4 (LC-MS); assay type: physicochemical; conditions: phosphate buffer, kinetic from dmso stock, PBS buffer pH 7.4, room temperature, spiked at 100 μM from DMSO stock
Description: Compounds as described herewith were analyzed for their aqueous solubility.
The aqueous solubility of compounds were determined using standard protocols. To illustrate the experimental protocol, the analysis of a representative compound is described. Exemplary compound of Example 158 (MW: 380.4 g/mol) was analyzed in a buffer system at specified pH (phosphate buffer, pH 7.4). This was accomplished by spiking a DMSO stock solution of the test compound at a final concentration of 100 μM in buffer.
Solubility calculation: This is a quantitative assay. The mixture at the end of the assay is filtered by 0.22 micron syringe filter and after 5× dilution in diluent, it was analyzed versus a calibration curve using LC-MS.

[2] = Plasma stability (LC-MS/MS, % parent compound remaining, half-life); assay type: in vitro ADME; conditions: human plasma; for half-life at 1 μM: 37° C., 0-240 mins, read-out: Human Plasma Stability (t1/2, min); for plasma stability and/or aqueous solubility compared to reference compound URB597: see Table 5
Description: Exemplary compounds described herewith were assayed for plasma stability (various species).
Plasma was removed from deep freezer and allowed to thaw at room temperature (or at 37° C. if needed). Plasma was then centrifuged at 4,000 rpm at RT for 10 min and supernatant was collected and used for the assay: • Drug test tubes: 297 μL plasma/drug test tube, duplicate/drug. • Blank test tubes: 297 μL plasma/Blank test tube, duplicate, too. (Optional, if assay system is stable and consistent) • T0 plasma tube: […] X No. of total sample tubes+50 μL extra for T0 extraction. • (Note: equivalent proportion of solvent mixture as added in drug test tubes will be added before T0 extraction!)
Take out the pre-warmed plasma tubes from the 37° C. incubator. Add 3 μL of 100 μM stock solution (or, equivalent proportion of the solvent mixture to T0 plasma tube for T0 extraction) to each corresponding sample tubes in order, vortex gently (3×) to mix. Finish the sample tubes orderly and quickly, then transfer them to the Thermomixer (program & 37° C. ready), and start the Thermomixer. Record starting time on paper & start the timer for 15 min for the 1st sampling time point.
Now add the equivalent amount of solvent mixture to the T0 plasma tube, mix, and transfer 50 μL plasma to each of the T0 extracting tubes, vortex 20s and placed on ice. Vortex 10s again before centrifuging the samples at 14,000 rpm for 5 min at 4° C.
Repeat the above procedures at each time point (15, 30, 60, 120, 240 min) by transferring 50 μL plasma samples from the testing tubes to the corresponding extracting tubes, in the same order and time scheme as in the addition of the drug to the plasma samples at the beginning of the study.
• Kel=Slope of LN % PCR vs time
Half life (t½)=0.693/Kel (1)

[3] = target: human recombinant MAGL (Homo sapiens (Human), UniProt Q99685); assay: In vitro inhibition of MAGL activity (inhibitor screening kit, 4-nitrophenylacetate); assay type: biochemical; conditions: human recombinant MAGL
Method in brief: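 Colorimetric kit assay: recombinant human MAGL hydrolyses 4-nitrophenylacetate to 4-nitrophenol, read by absorbance at 405-412 nm. Inhibition given as percentage of signal in treated versus untreated MAGL control.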

[4] = target: human recombinant FAAH (Homo sapiens (Human), UniProt O00519); assay: In vitro inhibition of FAAH activity (fluorescent inhibitor screening kit, AMC arachidonoyl amide); assay type: biochemical
Method in brief: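 Fluorogenic kit assay: AMC arachidonoyl amide is cleaved by human recombinant FAAH, read at 340-360/450-465 nm. Percent inhibition versus non-treated control; IC50 values derived from multiple compound concentrations where tested.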

[5] = FAAH, values as listed in Table 5, read-out: IC50
[6] = human recombinant FAAH, read-out: Inhibition on FAAH activity (IC50)

Sequence of human recombinant FAAH (O00519 whole entry): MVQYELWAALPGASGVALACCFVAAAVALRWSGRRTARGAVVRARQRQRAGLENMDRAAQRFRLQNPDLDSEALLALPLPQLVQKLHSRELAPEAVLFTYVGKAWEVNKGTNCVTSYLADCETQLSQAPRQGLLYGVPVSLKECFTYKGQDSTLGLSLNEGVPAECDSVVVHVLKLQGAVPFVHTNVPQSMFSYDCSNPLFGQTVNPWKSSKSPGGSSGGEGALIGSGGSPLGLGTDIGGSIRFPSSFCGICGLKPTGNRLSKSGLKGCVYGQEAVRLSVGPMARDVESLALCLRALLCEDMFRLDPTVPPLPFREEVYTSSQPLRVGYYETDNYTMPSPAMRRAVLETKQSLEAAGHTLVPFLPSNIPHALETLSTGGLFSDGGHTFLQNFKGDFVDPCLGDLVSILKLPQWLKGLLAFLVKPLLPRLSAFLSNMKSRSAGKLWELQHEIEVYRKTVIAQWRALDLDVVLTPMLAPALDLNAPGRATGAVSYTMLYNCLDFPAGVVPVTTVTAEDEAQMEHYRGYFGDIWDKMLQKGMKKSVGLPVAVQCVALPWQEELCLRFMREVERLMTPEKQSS
Sequence of human recombinant MAGL (Q99685 whole entry): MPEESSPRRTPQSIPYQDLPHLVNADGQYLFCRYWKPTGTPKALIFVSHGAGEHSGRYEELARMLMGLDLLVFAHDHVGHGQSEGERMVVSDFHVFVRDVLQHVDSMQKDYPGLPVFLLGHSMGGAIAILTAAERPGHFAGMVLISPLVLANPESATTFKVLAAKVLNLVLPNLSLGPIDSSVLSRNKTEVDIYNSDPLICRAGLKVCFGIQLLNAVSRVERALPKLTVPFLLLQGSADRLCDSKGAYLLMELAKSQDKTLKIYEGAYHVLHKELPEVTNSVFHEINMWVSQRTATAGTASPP

SMILES | solubility [1] [µM] | half-life at 1 μM [2] [min] | IC50 [3] [nM] | IC50 [4, 5] [nM] | IC50 [4, 6] [nM] | plasma stability and/or aqueous solubility compared to reference compound URB597 [2]
O=C(NC1CCCCCC1)Oc1cc(F)cc(-c2cncc(-c3nnco3)c2)c1 [Example 198, 3-(5-(1,3,4-oxadiazol-2-yl)pyridin-3-yl)-5-fluorophenyl cycloheptylcarbamate] | 5.7 (≈ 2.26 µg/mL) | 4.7 | > 10000 | 132 | 132 | –
COc1ccc(OC(=O)NC2CCCCCC2)cc1-c1cncc(-c2ncco2)c1 [Example 83, 4-methoxy-3-(5-(oxazol-2-yl)pyridin-3-yl)phenyl cycloheptylcarbamate] | 16.3 (≈ 6.64 µg/mL) | 194 | > 10000 | 111 | 10 to 100 | improved plasma stability, improved aqueous solubility, or improved plasma stability and aqueous solubility
O=C(NC1CCCCCC1)Oc1ccc(F)c(-c2cncc(-c3nnco3)c2)c1 [Example 194, 3-(5-(1,3,4-oxadiazol-2-yl)pyridin-3-yl)-4-fluorophenyl cycloheptylcarbamate] | – | 41 | > 10000 | 49.1 | 49.1 | improved plasma stability, improved aqueous solubility, or improved plasma stability and aqueous solubility
CCCCCCCCNC(=O)Oc1cccc(-c2cncc(-c3ncn[nH]3)c2)c1 [Example 219, 3-(5-(1H-1,2,4-triazol-5-yl)pyridin-3-yl)phenyl octyl carbamate] | – | – | ~10000 | – | 1 to 10 | –
O=C(NCC1CCCCC1)Oc1cccc(-c2cncc(-c3nnco3)c2)c1 [Example 134, 3-(5-(1,3,4-oxadiazol-2-yl)pyridin-3-yl)phenyl (cyclohexylmethyl)carbamate] | – | – | > 10000 | – | 10 to 20 | –
CCCCCCCCNC(=O)Oc1cccc(-c2cncc(-c3ncco3)c2)c1 [Example 73, 3-(5-(oxazol-2-yl)pyridin-3-yl)phenyl octylcarbamate] | – | – | > 10000 | – | 1 to 10 | –
CCCCCCCNC(=O)Oc1cccc(-c2cncc(-c3ncco3)c2)c1 [Example 72, 3-(5-(oxazol-2-yl)pyridin-3-yl)phenyl heptylcarbamate] | – | – | > 1000 | – | 1 to 10 | –
O=C(NC1CCCCCC1)Oc1cccc(-c2cncc(-c3ccno3)c2)c1 [Example 108, 3-(5-(isoxazol-5-yl)pyridin-3-yl)phenyl cycloheptylcarbamate] | – | – | > 1000 | – | 10 to 100 | –
O=C(NC1CCCC1)Oc1cccc(-c2cncc(-c3nccs3)c2)c1 [Example 118, 3-(5-(thiazol-2-yl)pyridin-3-yl)phenyl cyclopentylcarbamate] | – | – | > 10000 | – | ~100 | –
CCCCCNC(=O)Oc1cccc(-c2cncc(-c3ncco3)c2)c1 [Example 71, 3-(5-(oxazol-2-yl)pyridin-3-yl)phenyl pentylcarbamate] | – | – | > 10000 | – | 10 to 1000 | –
O=C(NC1CCCC1)Oc1cccc(-c2cncc(-c3ccc[nH]3)c2)c1 [Example 38, 3-(5-(1H-pyrrol-2-yl)pyridin-3-yl)phenyl cyclopentylcarbamate] | – | – | > 10000 | – | 100 to 1000 | –
O=C(NCc1ccccc1)Oc1cccc(-c2cncc(-c3ccco3)c2)c1 [Example 49, 3-(5-(furan-2-yl)pyridin-3-yl)phenyl benzylcarbamate] | – | – | > 10000 | – | 100 to 1000 | –
O=C(NC1CCCCCC1)Oc1cccc(-c2cncc(-c3cccs3)c2)c1 [Example 64, 3-(5-(thiophen-2-yl)pyridin-3-yl)phenyl cycloheptylcarbamate] | – | 24 | > 10000 | 39.1 | 39.1 | –
CCCCCCCCNC(=O)Oc1cccc(-c2cncc(-c3nnn[nH]3)c2)c1 [Example 238, 3-(5-(1H-tetrazol-5-yl)pyridin-3-yl)phenyl octylcarbamate] | – | – | ~10000 | – | 10 to 100 | –
O=C(NCC1CCCCC1)Oc1cccc(-c2cncc(-c3cccs3)c2)c1 [Example 60, 3-(5-(thiophen-2-yl)pyridin-3-yl)phenyl (cyclohexylmethyl)carbamate] | – | – | > 10000 | – | 10 to 100 | –
CC1CCC(NC(=O)Oc2ccc(O)c(-c3cncc(-c4nnco4)c3)c2)CC1 (centres unmarked) [Example 159] | – | – | > 10000 | – | 10 to 100 | –
O=C(NC1CCCC1)Oc1cccc(-c2cncc(-c3nnn[nH]3)c2)c1 [Example 241, 3-(5-(1H-tetrazol-5-yl)pyridin-3-yl)phenyl cyclopentylcarbamate] | – | – | > 10000 | – | > 1000 | –
O=C(NCC1CCCCC1)Oc1cccc(-c2cncc(-c3ccco3)c2)c1 [Example 48, 3-(5-(furan-2-yl)pyridin-3-yl)phenyl (cyclohexylmethyl)carbamate] | – | – | ~10000 | – | 10 to 100 | –
O=C(NC1CCCCCC1)Oc1cccc(-c2cncc(-c3nnco3)c2)c1 [Example 137, 3-(5-(1,3,4-oxadiazol-2-yl)pyridin-3-yl)phenyl cycloheptylcarbamate] | – | – | > 10000 | – | 10 to 20 | –
O=C(NCc1ccccc1)Oc1ccc(O)c(-c2cncc(-c3ncn[nH]3)c2)c1 [Example 228, 3-(5-(1H-1,2,4-triazol-5-yl)pyridin-3-yl)-4-hydroxyphenyl benzylcarbamate] | – | – | > 10000 | – | 100 to 1000 | –
O=C(NC1CCCCCC1)Oc1cccc(-c2cncc(-c3nnn[nH]3)c2)c1 [Example 243, 3-(5-(1H-tetrazol-5-yl)pyridin-3-yl)phenyl cycloheptylcarbamate] | – | – | > 10000 | – | > 1000 | –
COc1ccc(OC(=O)NC2CCCC2)cc1-c1cncc(-c2cccs2)c1 [Example 68, 4-methoxy-3-(5-(thiophen-2-yl)pyridin-3-yl)phenyl cyclopentylcarbamate] | – | – | ~10000 | – | 100 to 1000 | –
O=C(NC1CCCC1)Oc1cc(O)cc(-c2cncc(-c3nnco3)c2)c1 [Example 163, 3-(5-(1,3,4-oxadiazol-2-yl)pyridin-3-yl)-5-hydroxyphenyl cyclopentylcarbamate] | – | – | > 50000 | – | 10 to 100 | –
COc1ccc(OC(=O)NC2CCCCCC2)cc1-c1cncc(-c2ccco2)c1 [Example 58, 3-(5-(furan-2-yl)pyridin-3-yl)-4-methoxyphenyl cycloheptylcarbamate] | – | – | > 10000 | – | 100 to 1000 | –
COc1ccc(OC(=O)NCC2CCCCC2)cc1-c1cncc(-c2ccno2)c1 [Example 110, 3-(5-(isoxazol-5-yl)pyridin-3-yl)-4-methoxyphenyl (cyclohexylmethyl)carbamate] | – | – | ~10000 | – | 10 to 100 | –
COc1ccc(OC(=O)NCc2ccccc2)cc1-c1cncc(-c2cccs2)c1 [Example 67, 4-methoxy-3-(5-(thiophen-2-yl)pyridin-3-yl)phenyl benzylcarbamate] | – | – | > 10000 | – | > 1000 | –
COc1ccc(OC(=O)NCc2ccccc2)cc1-c1cncc(-c2nnn[nH]2)c1 [Example 252, 3-(5-(1H-tetrazol-5-yl)pyridin-3-yl)-4-methoxyphenyl benzylcarbamate] | – | – | > 10000 | – | > 1000 | –
CCCCN(CCCC)C(=O)Oc1cccc(-c2cncc(-c3nnco3)c2)c1 [Example 155, 3-(5-(1,3,4-oxadiazol-2-yl)pyridin-3-yl)phenyl dibutylcarbamate] | – | – | ~10000 | – | > 1000 | –
